The text below walks through data of patent publication US4918105A, “Novel compounds with collagenase-inhibiting activity, a process for their preparation and pharmaceutical compositions in which these compounds are present” (SA Laboratoire Roger Bellon, priority 1987, dated 1990).

Where two headings read alike, the source gives them in different places.

In one assay the target is T1, Porcine collagenase (Sus scrofa, UniProt P21692).
T1 construct: isolated from synovial cells in culture; endogenous in cells; host or cells: porcine synovial cells in culture
T1 sequence (P21692 100-469): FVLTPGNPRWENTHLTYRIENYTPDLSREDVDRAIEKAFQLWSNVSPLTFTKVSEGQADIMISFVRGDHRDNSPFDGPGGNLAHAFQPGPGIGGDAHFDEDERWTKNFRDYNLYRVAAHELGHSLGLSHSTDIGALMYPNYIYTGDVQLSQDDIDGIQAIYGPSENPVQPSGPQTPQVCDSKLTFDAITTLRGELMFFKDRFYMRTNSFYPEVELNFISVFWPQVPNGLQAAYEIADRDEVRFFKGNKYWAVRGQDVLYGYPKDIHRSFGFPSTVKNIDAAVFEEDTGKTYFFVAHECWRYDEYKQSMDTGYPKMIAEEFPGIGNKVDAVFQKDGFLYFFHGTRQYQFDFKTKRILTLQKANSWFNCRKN
Briefly: Specificity of the inhibition: porcine collagenase. The class given is biochemical. The note with it: for inhibition at 10 µM: 10^-5 M; for inhibition at 0.1 µM: 10^-7 M. How it is done:
(§1) The anticollagenase activity of the compounds according to the present invention was determined on synovial collagenase of porcine or human origin, isolated from synovial cells in culture according to the procedure described by Cawston and Barrett (Cawston and Barrett (1979), Anal. Biochem. 99, 340-345). The collagenase was incubated at 37° C. with radiolabeled collagen and its activity was determined by the release of the soluble peptides produced by enzymatic degradation of the collagen. The inhibitory concentration IC50 for each compound was determined by measuring the activity of the enzyme in the presence of the inhibitor at a concentration of between 10^-5 and 10^-8 M.
(§2) The specificity of the inhibition was measured by studying several other enzymes, including metalloporteases other than collagenase.

The next assay deals with T2, Human collagenase (Homo sapiens, UniProt P03956).
T2 construct: isolated from synovial cells in culture; endogenous in cells; host or cells: human synovial cells in culture
T2 sequence (P03956 100-469): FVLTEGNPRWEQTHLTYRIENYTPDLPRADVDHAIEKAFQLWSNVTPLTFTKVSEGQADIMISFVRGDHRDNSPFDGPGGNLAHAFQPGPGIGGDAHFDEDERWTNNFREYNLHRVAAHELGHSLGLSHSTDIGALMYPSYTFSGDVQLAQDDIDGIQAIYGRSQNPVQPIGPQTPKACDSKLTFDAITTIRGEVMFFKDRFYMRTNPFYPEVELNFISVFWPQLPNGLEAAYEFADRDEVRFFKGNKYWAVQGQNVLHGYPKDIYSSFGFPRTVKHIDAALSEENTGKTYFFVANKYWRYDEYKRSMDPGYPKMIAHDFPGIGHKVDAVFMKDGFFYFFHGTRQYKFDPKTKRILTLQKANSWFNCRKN
Briefly: Specificity of the inhibition: human collagenase. The class given is biochemical. The note with it: for inhibition at 10 µM: 10^-5 M; for inhibition at 0.1 µM: 10^-7 M. How it is done: as §1, §2

For another assay, the target named is ACE (Homo sapiens, UniProt P12821). Briefly: Specificity of the inhibition: ACE. The class given is biochemical. As to conditions: for inhibition at 10 µM: 10^-5 M; for inhibition at 0.1 µM: 10^-7 M. How it is done:
as §2

The next assay concerns the target T3, Carboxypeptidase A (Bos taurus, UniProt P00730).
T3 sequence (P00730 111-419): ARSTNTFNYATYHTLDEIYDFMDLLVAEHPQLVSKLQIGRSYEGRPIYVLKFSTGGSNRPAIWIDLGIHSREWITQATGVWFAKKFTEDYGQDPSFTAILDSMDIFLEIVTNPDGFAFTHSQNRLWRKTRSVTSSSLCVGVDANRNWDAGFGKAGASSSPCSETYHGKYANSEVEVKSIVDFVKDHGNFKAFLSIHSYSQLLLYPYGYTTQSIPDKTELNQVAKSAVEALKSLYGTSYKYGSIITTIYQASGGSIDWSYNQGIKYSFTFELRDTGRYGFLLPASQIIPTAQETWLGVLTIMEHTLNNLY
The assay is described as follows: Specificity of the inhibition: carboxypeptidase A. The assay is classed as biochemical. The note with it: for inhibition at 10 µM: 10^-5 M; for inhibition at 0.1 µM: 10^-7 M. Here is the method: as §2

In a further assay the target is T4, Carboxypeptidase B (Sus scrofa, UniProt P09955).
T4 sequence (P09955 111-416): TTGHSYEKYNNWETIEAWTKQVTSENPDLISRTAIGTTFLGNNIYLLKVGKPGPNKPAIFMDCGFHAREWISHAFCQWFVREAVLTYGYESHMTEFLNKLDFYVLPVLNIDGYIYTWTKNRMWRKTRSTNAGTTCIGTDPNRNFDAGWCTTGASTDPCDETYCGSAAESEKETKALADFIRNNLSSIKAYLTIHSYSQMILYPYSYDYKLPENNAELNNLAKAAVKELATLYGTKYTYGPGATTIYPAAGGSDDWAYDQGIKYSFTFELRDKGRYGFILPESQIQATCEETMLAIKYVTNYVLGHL
The assay is described as follows: Specificity of the inhibition: carboxypeptidase B. The note with it: for inhibition at 10 µM: 10^-5 M; for inhibition at 0.1 µM: 10^-7 M. The class given is biochemical. How it is done:
as §2

A further assay has as its target α-Chymotrypsin (Bos taurus, UniProt P00766). Briefly: Specificity of the inhibition: α-chymotrypsin. The note with it: for inhibition at 10 µM: 10^-5 M; for inhibition at 0.1 µM: 10^-7 M. The assay is classed as biochemical. How it is done: as §2
The target of a further assay is Plasmin (Homo sapiens, UniProt P00747). The assay is described as follows: Specificity of the inhibition: plasmin. The note with it: for inhibition at 10 µM: 10^-5 M; for inhibition at 0.1 µM: 10^-7 M. The assay is classed as biochemical. How it is done: as §2
Another assay concerns the target Thrombin (Homo sapiens, UniProt P00734). Briefly: Specificity of the inhibition: thrombin. The assay is classed as biochemical. The note with it: for inhibition at 10 µM: 10^-5 M; for inhibition at 0.1 µM: 10^-7 M. Here is the method: as §2
The target in the next assay is T5, Trypsin (Bos taurus, UniProt P00760).
T5 sequence (P00760 24-246): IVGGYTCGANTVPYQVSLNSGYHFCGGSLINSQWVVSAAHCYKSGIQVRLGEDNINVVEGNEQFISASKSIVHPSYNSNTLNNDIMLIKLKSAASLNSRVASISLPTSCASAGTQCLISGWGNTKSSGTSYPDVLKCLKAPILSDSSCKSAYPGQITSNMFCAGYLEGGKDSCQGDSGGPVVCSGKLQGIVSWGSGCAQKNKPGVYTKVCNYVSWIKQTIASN
The assay is described as follows: Specificity of the inhibition: trypsin. The note with it: for inhibition at 10 µM: 10^-5 M; for inhibition at 0.1 µM: 10^-7 M. The class given is biochemical. How it is done:
as §2

Another assay has as its target T6, Papain (Carica papaya, UniProt P00784).
T6 sequence (P00784 134-345): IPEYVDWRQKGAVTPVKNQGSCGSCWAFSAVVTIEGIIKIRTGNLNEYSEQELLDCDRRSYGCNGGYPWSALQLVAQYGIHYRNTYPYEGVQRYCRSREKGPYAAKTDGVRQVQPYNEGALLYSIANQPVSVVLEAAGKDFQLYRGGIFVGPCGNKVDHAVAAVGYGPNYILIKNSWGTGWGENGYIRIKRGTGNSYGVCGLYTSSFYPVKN
Briefly: Specificity of the inhibition: papain. The assay is classed as biochemical. The note with it: for inhibition at 10 µM: 10^-5 M; for inhibition at 0.1 µM: 10^-7 M. Here is the method:
as §2

For another assay, the target named is Pepsin (Sus scrofa, UniProt P00791). Briefly: Specificity of the inhibition: pepsin. The class given is biochemical. The note with it: for inhibition at 10 µM: 10^-5 M; for inhibition at 0.1 µM: 10^-7 M. Here is the method: as §2
Assay [1] addresses synovial collagenase of porcine or human origin. Briefly: Anticollagenase activity: release of soluble peptides from radiolabeled collagen. The assay is classed as biochemical. Here is the method: as §1
Representative results of these tests are given for the compounds according to the invention in Table I.

Another assay relates to bone resorption. The assay is described as follows: Bone resorption model in isolated organ (Ca++ release). The assay is classed as cell-based. From the text: Anticollagenase activity has also been determined in a bone resorption model described by Delaisse et al. (Delaisse et al. (1985), Biochem. Biophys. Res. commun., 133, 483-490). This model, which utilizes the degradation of cartilage and bone in an isolated organ, is more physiological than direct determination of the enzyme activity in vitro. The results of the tests are collated in Table II; the same inhibitors are found to be active in both systems.

The mark [2] stands for this setting: Table I, % inhibition 50, read-out: Concentration for 50 % inhibition (IC50), anticollagenase activity.

Sequence of Plasmin (P00747 581-810 limits assumed, species assumed): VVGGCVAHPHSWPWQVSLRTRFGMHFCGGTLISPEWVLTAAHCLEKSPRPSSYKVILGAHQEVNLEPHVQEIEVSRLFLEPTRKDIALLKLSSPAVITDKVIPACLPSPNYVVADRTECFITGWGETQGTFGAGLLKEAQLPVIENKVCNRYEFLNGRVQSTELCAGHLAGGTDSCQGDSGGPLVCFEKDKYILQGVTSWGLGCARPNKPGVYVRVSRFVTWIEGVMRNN
Sequence of Plasmin (P00747 97-580 partner limits assumed, species assumed): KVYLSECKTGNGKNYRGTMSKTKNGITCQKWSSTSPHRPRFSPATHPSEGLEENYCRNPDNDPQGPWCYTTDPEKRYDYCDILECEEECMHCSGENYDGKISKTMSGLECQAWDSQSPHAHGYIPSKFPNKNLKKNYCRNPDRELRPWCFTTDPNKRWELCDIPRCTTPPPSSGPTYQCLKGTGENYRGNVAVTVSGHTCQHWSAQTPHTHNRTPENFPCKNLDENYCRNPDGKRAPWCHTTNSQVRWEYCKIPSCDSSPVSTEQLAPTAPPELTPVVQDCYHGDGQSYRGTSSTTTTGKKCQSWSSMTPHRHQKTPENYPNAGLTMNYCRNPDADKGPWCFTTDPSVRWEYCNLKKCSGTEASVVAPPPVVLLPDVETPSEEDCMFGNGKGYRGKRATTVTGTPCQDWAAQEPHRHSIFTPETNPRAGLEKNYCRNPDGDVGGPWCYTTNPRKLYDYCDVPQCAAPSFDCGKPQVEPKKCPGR
Sequence of ACE (P12821 30-1306, species assumed): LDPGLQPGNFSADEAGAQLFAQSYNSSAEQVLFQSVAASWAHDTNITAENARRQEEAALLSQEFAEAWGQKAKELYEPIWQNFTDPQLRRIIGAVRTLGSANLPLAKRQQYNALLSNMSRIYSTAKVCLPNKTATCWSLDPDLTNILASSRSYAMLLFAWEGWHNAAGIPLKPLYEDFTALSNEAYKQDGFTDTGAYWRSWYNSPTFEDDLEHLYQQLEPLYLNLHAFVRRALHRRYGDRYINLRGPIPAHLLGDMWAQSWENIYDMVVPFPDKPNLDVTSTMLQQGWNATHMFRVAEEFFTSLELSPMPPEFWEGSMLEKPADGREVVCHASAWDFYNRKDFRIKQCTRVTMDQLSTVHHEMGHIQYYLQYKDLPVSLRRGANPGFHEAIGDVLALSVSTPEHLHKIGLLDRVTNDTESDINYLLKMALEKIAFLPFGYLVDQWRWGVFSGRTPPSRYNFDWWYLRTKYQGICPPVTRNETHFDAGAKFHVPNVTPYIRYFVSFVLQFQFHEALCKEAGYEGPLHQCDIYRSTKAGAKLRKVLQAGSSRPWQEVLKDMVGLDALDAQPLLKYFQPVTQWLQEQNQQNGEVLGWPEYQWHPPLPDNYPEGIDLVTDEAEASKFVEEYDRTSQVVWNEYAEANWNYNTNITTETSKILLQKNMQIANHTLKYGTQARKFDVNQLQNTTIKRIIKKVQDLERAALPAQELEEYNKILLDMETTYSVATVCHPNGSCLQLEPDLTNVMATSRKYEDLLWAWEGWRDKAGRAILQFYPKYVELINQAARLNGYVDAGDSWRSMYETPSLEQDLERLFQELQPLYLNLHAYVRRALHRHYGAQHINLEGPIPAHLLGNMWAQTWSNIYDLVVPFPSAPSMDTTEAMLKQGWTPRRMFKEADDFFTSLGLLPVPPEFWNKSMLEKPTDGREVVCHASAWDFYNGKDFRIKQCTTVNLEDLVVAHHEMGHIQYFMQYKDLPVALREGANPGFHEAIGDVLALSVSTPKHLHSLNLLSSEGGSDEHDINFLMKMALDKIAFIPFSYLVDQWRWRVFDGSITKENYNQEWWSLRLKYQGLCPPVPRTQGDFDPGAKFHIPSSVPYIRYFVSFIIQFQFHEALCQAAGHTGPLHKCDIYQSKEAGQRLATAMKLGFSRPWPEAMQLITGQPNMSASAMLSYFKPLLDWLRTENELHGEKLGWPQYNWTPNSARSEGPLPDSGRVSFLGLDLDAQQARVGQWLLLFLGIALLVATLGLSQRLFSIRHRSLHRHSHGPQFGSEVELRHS
Sequence of Pepsin (P00791 60-385): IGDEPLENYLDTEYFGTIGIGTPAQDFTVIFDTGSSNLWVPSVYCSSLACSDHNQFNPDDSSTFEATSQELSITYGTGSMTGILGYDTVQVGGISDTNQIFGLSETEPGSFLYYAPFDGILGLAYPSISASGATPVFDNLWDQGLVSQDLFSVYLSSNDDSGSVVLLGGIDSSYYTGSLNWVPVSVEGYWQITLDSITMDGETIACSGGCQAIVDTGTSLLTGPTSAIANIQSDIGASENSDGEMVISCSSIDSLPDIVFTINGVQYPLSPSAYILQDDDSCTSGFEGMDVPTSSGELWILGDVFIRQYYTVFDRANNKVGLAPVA

On to `CC(C)CC(CC(=O)NO)C(=O)N[C@H](C(=O)NCc1ccccc1)C(C)C` (single isomer, unassigned) [Example 2, N-Benzyl-Nα-(N-hydroxy-2-isobutylsuccinamoyl)-L-valinamide], for which the inhibition at 10 µM was 100% against Porcine collagenase; 100% on Human collagenase; 40% against ACE; 0% at Carboxypeptidase A; 0% on Carboxypeptidase B; 0% against α-Chymotrypsin. Moreover, the inhibition at 10 µM came out at 0% against Plasmin; 5% against Thrombin; 0% at Trypsin; 5% against Papain; 19% against Pepsin. Moreover, the inhibition at 0.1 µM on Porcine collagenase stood at 52%; against Human collagenase, 30%; against ACE, 4%; against Carboxypeptidase A, 0%; on Carboxypeptidase B, 0%; against α-Chymotrypsin, 0%. Also, the inhibition at 0.1 µM at Plasmin, at Thrombin, on Trypsin, at Papain and on Pepsin was 0% in each case.

As to `CC(C)CC(CC(=O)NO)C(=O)N[C@H](C(=O)NCc1ccccc1)C(C)C` (single isomer, unassigned) [Example 2, isomer A, N-Benzyl-Nα-(N-hydroxy-2-isobutylsuccinamoyl)-L-valinamide], in [1] (Table II, read-out: collagenase inhibition IC50), the IC50 worked out at 16 µM. In addition, the “% protection against bone resorption (Ca++ release)” value in the assay with bone resorption (8 μM) and in the assay with bone resorption (25 μM) was 0% in each case.

In the case of `CC(C)CC(CC(=O)NO)C(=O)N[C@H](C(=O)NCc1ccccc1)C(C)C` (single isomer, unassigned) [Example 3, N-Benzyl-Nα-(N-hydroxy-2-isobutylsuccinamoyl)-L-valinamide, B form], the IC50 in [1] (setting [2]) was 0.035 µM; in assay [1] (Table II, listed as Example 2, isomer B, read-out: collagenase inhibition IC50), 0.035 µM. The “% protection against bone resorption (Ca++ release)” value is given as 90-100% in the assay on bone resorption (8 μM, listed as Example 2, isomer B) and 90-100% in the assay on bone resorption (25 μM, listed as Example 2, isomer B).

On to `CC(C)CC(CC(=O)NO)C(=O)N[C@H](C(=O)NCc1ccc(C(F)(F)F)cc1)C(C)C` (single isomer, unassigned) [Example 4, N-(4-Trifluoromethylbenzyl)-Nα-(N-hydroxy-2-isobutylsuccinamoyl)-L-valinamide, B form], for which, in assay [1] (setting [2]), the IC50 amounted to 0.08 µM.

Consider `CC(C)CC(CC(=O)NO)C(=O)N[C@H](C(=O)NCCc1ccccc1)C(C)C` (single isomer, unassigned) [Example 5, N-Phenethyl-Nα-(N-hydroxy-2-isobutylsuccinamoyl)-L-valinamide, B form], for which the IC50 in [1] (setting [2]) stood at 0.075 µM.

In the case of `CC(C)CC(CC(=O)NO)C(=O)N[C@H](C(N)=O)C(C)C` (stereo partly drawn) [Example 1, Nα-(N-hydroxy-2-isobutylsuccinamoyl)-L-valinamide], the IC50 in assay [1] (setting [2]) was 0.32 µM. Besides, the inhibition at 10 µM is 100% on Porcine collagenase; 100% at Human collagenase; 4% at ACE; 0% at Carboxypeptidase A; 0% at Carboxypeptidase B; 0% against α-Chymotrypsin. Further, the inhibition at 10 µM against Plasmin is 0%; against Thrombin, 0%; against Trypsin, 0%; against Papain it was 5%; on Pepsin, 19%. For the same compound, the inhibition at 0.1 µM on Porcine collagenase came to 23%; against Human collagenase, 12%; at ACE it was 0%; against Carboxypeptidase A, 0%; against Carboxypeptidase B, 0%; against α-Chymotrypsin, 0%. The inhibition at 0.1 µM on Plasmin, on Thrombin, against Trypsin, on Papain and on Pepsin was 0% each time.

By inhibition is commonly meant the change of the read-out against control, counted positive when it falls. A low value points to little suppression.
